Like-named read-outs stand apart in the source and are kept apart here.
How the values were obtained:
Assay type in all cases: in vivo
[1] = test system: barnyardgrass (Echinochloa crus-galli); experiment: Test A pre-/postemergence plant response; conditions: for pest or weed control at 31 g/ha / pest or weed control at 125 g/ha: Echinochloa crus-galli, 240 h, read-out: Plant response rating, Barnyardgrass; for pest or weed control at 31 g/ha: 31 g ai/ha
Outline: (§1)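 Ratings are visual, 0–100, where 100 means complete control and 0 no effect, taken roughly 10 days after treatment by comparison with untreated controls. Formulation: non-phytotoxic solvent mixture with surfactant.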

[2] = test system: wheat (Triticum aestivum); experiment: Test A pre-/postemergence plant response; conditions: for plant injury at 31 g/ha / plant injury at 125 g/ha: Triticum aestivum, 240 h, read-out: Plant response rating, Wheat; for plant injury at 31 g/ha: 31 g ai/ha
Outline: as §1

[3] = test system: pigweed (Amaranthus retroflexus); experiment: Test A pre-/postemergence plant response; conditions: for pest or weed control at 31 g/ha / pest or weed control at 125 g/ha: Amaranthus retroflexus, 240 h, read-out: Plant response rating, Pigweed; for pest or weed control at 31 g/ha: 31 g ai/ha
Outline: as §1

[4] = test system: giant foxtail (Setaria faberi); experiment: Test A pre-/postemergence plant response; conditions: for pest or weed control at 31 g/ha / pest or weed control at 125 g/ha: Setaria faberi, 240 h, read-out: Plant response rating, Foxtail, Giant; for pest or weed control at 31 g/ha: 31 g ai/ha
Outline: as §1

[5] = test system: velvetleaf (Abutilon theophrasti); experiment: Test A pre-/postemergence plant response
Outline: as §1

[6] = test system: large crabgrass (Digitaria sanguinalis); experiment: Test A pre-/postemergence plant response; conditions: for pest or weed control at 31 g/ha / pest or weed control at 125 g/ha: Digitaria sanguinalis, 240 h, read-out: Plant response rating, Crabgrass, Large; for pest or weed control at 31 g/ha: 31 g ai/ha
Outline: as §1

[7] = test system: morningglory (Ipomoea coccinea); experiment: Test A pre-/postemergence plant response
Outline: as §1

[8] = test system: barnyardgrass (Echinochloa crus-galli); experiment: Test B flooded paddy test plant response
Outline: (§2)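 Rice, umbrella sedge, ducksalad and barnyardgrass at 2-leaf stage; pots flooded to 3 cm, compounds applied into paddy water, depth held throughout. Greenhouse 13 to 15 days, then visual rating vs untreated controls on 0–100 scale (0 no effect, 100 complete control); dash means no test result.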

[9] = test system: umbrella sedge (Cyperus difformis); experiment: Test B flooded paddy test plant response
Outline: as §2

[10] = test system: ducksalad (Heteranthera limosa); experiment: Test B flooded paddy test plant response
Outline: as §2

[11] = Postemergence, 125 g ai/ha, 0 to 100 scale, 0 no effect, 100 complete control
[12] = Postemergence, 500 g ai/ha, 0 to 100 scale, 0 no effect, 100 complete control
[13] = Preemergence, 125 g ai/ha, 0 to 100 scale (0 no effect, 100 complete control)
[14] = Preemergence, 500 g ai/ha, 0 to 100 scale (0 no effect, 100 complete control)
[15] = Flood (flooded paddy test), 62 g ai/ha, scale 0 to 100, 0 no effect, 100 complete control
[16] = Flood (flooded paddy test), 125 g ai/ha, scale 0 to 100, 0 no effect, 100 complete control
[17] = Flood (flooded paddy test), 250 g ai/ha, scale 0 to 100, 0 no effect, 100 complete control
[18] = Flood, 31 g ai/ha, scale 0 to 100
[19] = post-emergence, Postemergence, 0 to 100 scale (0 no effect, 100 complete control)
[20] = post-emergence, Postemergence, 125 g ai/ha, 0 to 100 scale, 0 no effect, 100 complete control
[21] = pre-emergence, Preemergence, 0 to 100 scale, 0 is no effect, 100 is complete control
[22] = pre-emergence, Preemergence, 125 g ai/ha, 0 to 100 scale (0 no effect, 100 complete control)

Compound: Cc1cc(-c2ccc(C(F)(F)F)cc2)nn1-c1c(O)c(C(C)C)nn(C)c1=O [Compound 27]
- Plant response rating, Barnyardgrass [1, 11]: 20
- Plant response rating, Barnyardgrass [1, 12]: 90
- Plant response rating, Barnyardgrass [1, 13]: 80
- Plant response rating, Barnyardgrass [1, 14]: 100
- Plant response rating, Wheat [2, 11]: 50
- Plant response rating, Wheat [2, 12]: 90
- Plant response rating, Wheat [2, 13]: 40
- Plant response rating, Wheat [2, 14]: 100
- Plant response rating, Pigweed [3, 11]: 0
- Plant response rating, Pigweed [3, 12]: 0
- Plant response rating, Pigweed [3, 13]: 0
- Plant response rating, Pigweed [3, 14]: 0
- Plant response rating, Foxtail, Giant [4, 11]: 50
- Plant response rating, Foxtail, Giant [4, 12]: 90
- Plant response rating, Foxtail, Giant [4, 13]: 80
- Plant response rating, Foxtail, Giant [4, 14]: 90
- Plant response rating, Velvetleaf [5, 11]: 0
- Plant response rating, Velvetleaf [5, 12]: 0
- Plant response rating, Velvetleaf [5, 13]: 0
- Plant response rating, Velvetleaf [5, 14]: 0
- Plant response rating, Crabgrass, Large [6, 11]: 60
- Plant response rating, Crabgrass, Large [6, 12]: 80
- Plant response rating, Crabgrass, Large [6, 13]: 80
- Plant response rating, Crabgrass, Large [6, 14]: 100
- Plant response rating, Morningglory [7, 11]: 0
- Plant response rating, Morningglory [7, 12]: 0
- Plant response rating, Morningglory [7, 13]: 0
- Plant response rating, Morningglory [7, 14]: 0
- Plant response rating, Barnyardgrass [8, 15]: 0
- Plant response rating, Barnyardgrass [8, 16]: 0
- Plant response rating, Barnyardgrass [8, 17]: 30
- Plant response rating, Barnyardgrass [8, 18]: 0
- Plant response rating, Sedge, Umbrella [9, 15]: 20
- Plant response rating, Sedge, Umbrella [9, 16]: 30
- Plant response rating, Sedge, Umbrella [9, 17]: 65
- Plant response rating, Sedge, Umbrella [9, 18]: 20
- Plant response rating, Ducksalad [10, 15]: 40
- Plant response rating, Ducksalad [10, 16]: 60
- Plant response rating, Ducksalad [10, 17]: 75
- Plant response rating, Ducksalad [10, 18]: 0

Compound: Cn1ncc(O)c(-c2nn(-c3ccc(C(F)(F)F)cc3)cc2Br)c1=O [Compound 87, 4-[4-bromo-1-[4-(trifluoromethyl)phenyl]-1H-pyrazol-3-yl]-5-hydroxy-2-methyl-3(2H)-pyridazinone]
- pest or weed control at 31 g/ha [1, 19]: 0%
- pest or weed control at 125 g/ha [1, 20]: 90%
- pest or weed control at 31 g/ha [1, 21]: 0%
- pest or weed control at 125 g/ha [1, 22]: 50%
- plant injury at 31 g/ha [2, 19]: 20%
- plant injury at 125 g/ha [2, 20]: 50%
- plant injury at 31 g/ha [2, 21]: 0%
- plant injury at 125 g/ha [2, 22]: 20%
- pest or weed control at 31 g/ha [3, 19]: 0%
- pest or weed control at 125 g/ha [3, 20]: 0%
- pest or weed control at 31 g/ha [3, 21]: 0%
- pest or weed control at 125 g/ha [3, 22]: 0%
- pest or weed control at 31 g/ha [4, 19]: 20%
- pest or weed control at 125 g/ha [4, 20]: 80%
- pest or weed control at 31 g/ha [4, 21]: 20%
- pest or weed control at 125 g/ha [4, 22]: 90%
- pest or weed control at 31 g/ha [6, 19]: 10%
- pest or weed control at 125 g/ha [6, 20]: 80%
- pest or weed control at 31 g/ha [6, 21]: 20%
- pest or weed control at 125 g/ha [6, 22]: 70%
- pest or weed control at 250 g/ha ([8]; Echinochloa crus-galli, Flood (flooded paddy test), 250 g ai/ha, scale 0 to 100, 0 no effect, 100 complete control, read-out: Plant response rating, Barnyardgrass): 0%
- pest or weed control at 62 g/ha ([8]; Echinochloa crus-galli, Flood, 62 g ai/ha, scale 0 to 100, read-out: Plant response rating, Barnyardgrass): 0%
- pest or weed control at 250 g/ha ([9]; Cyperus difformis, Flood (flooded paddy test), 250 g ai/ha, scale 0 to 100, 0 no effect, 100 complete control, read-out: Plant response rating, Sedge, Umbrella): 0%
- pest or weed control at 62 g/ha ([9]; Cyperus difformis, Flood, 62 g ai/ha, scale 0 to 100, read-out: Plant response rating, Sedge, Umbrella): 0%
- pest or weed control at 250 g/ha ([10]; Heteranthera limosa, Flood (flooded paddy test), 250 g ai/ha, scale 0 to 100, 0 no effect, 100 complete control, read-out: Plant response rating, Ducksalad): 0%
- pest or weed control at 62 g/ha ([10]; Heteranthera limosa, Flood, 62 g ai/ha, scale 0 to 100, read-out: Plant response rating, Ducksalad): 0%
